Measured values: PubChem BioAssay (NCI)
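All cell lines were grown in 96-well plates and treated with compound for 48 hours. Abbreviation: GI50, concentration required for 50% inhibition of growth. TGI is the concentration that stops growth completely.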

What was measured:
Experiment in all cases: NCI-60 cell line screen, 48 h
RPMI-8226 leukemia = test system: RPMI-8226 leukemia
IGROV1 ovarian = test system: IGROV1 ovarian
TK-10 renal = test system: TK-10 renal
CAKI-1 renal = test system: CAKI-1 renal
MDA-MB-231 breast = test system: MDA-MB-231 breast
U251 CNS = test system: U251 CNS
COLO 205 colon = test system: COLO 205 colon
EKVX NSCLC = test system: EKVX NSCLC
RXF 393 renal = test system: RXF 393 renal
T-47D breast = test system: T-47D breast
UACC-62 melanoma = test system: UACC-62 melanoma
NCI-H226 lung = test system: NCI-H226 lung
SNB-75 CNS = test system: SNB-75 CNS
NCI-H522 lung = test system: NCI-H522 lung
SK-MEL-5 melanoma = test system: SK-MEL-5 melanoma
MOLT-4 leukemia = test system: MOLT-4 leukemia
NCI/ADR-RES ovarian = test system: NCI/ADR-RES ovarian
HCT-116 colon = test system: HCT-116 colon
K-562 leukemia = test system: K-562 leukemia
NCI-H460 lung = test system: NCI-H460 lung
PC-3 prostate = test system: PC-3 prostate
786-0 renal = test system: 786-0 renal
KM12 colon = test system: KM12 colon
SW-620 colon = test system: SW-620 colon
SK-MEL-28 melanoma = test system: SK-MEL-28 melanoma
SN12C renal = test system: SN12C renal
SK-MEL-2 melanoma = test system: SK-MEL-2 melanoma
UO-31 renal = test system: UO-31 renal
OVCAR-3 ovarian = test system: OVCAR-3 ovarian
UACC-257 melanoma = test system: UACC-257 melanoma
SNB-19 CNS = test system: SNB-19 CNS
NCI-H23 lung = test system: NCI-H23 lung
SF-295 CNS = test system: SF-295 CNS
OVCAR-8 ovarian = test system: OVCAR-8 ovarian
HCT-15 colon = test system: HCT-15 colon
HS 578T breast = test system: HS 578T breast
A498 renal = test system: A498 renal
SF-539 CNS = test system: SF-539 CNS
MDA-MB-435 = test system: MDA-MB-435
SK-OV-3 ovarian = test system: SK-OV-3 ovarian
ACHN renal = test system: ACHN renal
HOP-92 NSCLC = test system: HOP-92 NSCLC
OVCAR-4 ovarian = test system: OVCAR-4 ovarian
CCRF-CEM leukemia = test system: CCRF-CEM leukemia
MCF7 breast = test system: MCF7 breast
MALME-3M melanoma = test system: MALME-3M melanoma
SR leukemia = test system: SR leukemia
HOP-62 NSCLC = test system: HOP-62 NSCLC
SF-268 CNS = test system: SF-268 CNS
LOX IMVI melanoma = test system: LOX IMVI melanoma
HCC-2998 colon = test system: HCC-2998 colon
M14 melanoma = test system: M14 melanoma
A549 NSCLC = test system: A549 NSCLC
HT29 colon = test system: HT29 colon
BT-549 breast = test system: BT-549 breast
DU-145 prostate = test system: DU-145 prostate
HL-60(TB) leukemia = test system: HL-60(TB) leukemia
OVCAR-5 ovarian = test system: OVCAR-5 ovarian

## Cc1cc(Cl)ccc1NS(=O)(=O)c1ccc(-c2cnc(C3CC3)o2)cc1
RPMI-8226 leukemia
  GI50: 0.343 µM
  TGI: 23.1 µM
IGROV1 ovarian
  GI50: 0.365 µM
  TGI: 15.5 µM
TK-10 renal
  GI50: 11.8 µM
  TGI: 31.1 µM
CAKI-1 renal
  GI50: 0.127 µM
  TGI: 17.6 µM
MDA-MB-231 breast
  GI50: 0.94 µM
  TGI: 20 µM
U251 CNS
  GI50: 0.384 µM
  TGI: 15.7 µM
COLO 205 colon
  GI50: 0.36 µM
  TGI: 4.44 µM
EKVX NSCLC
  GI50: 0.411 µM
  TGI: 28.5 µM
RXF 393 renal
  GI50: 0.268 µM
  TGI: 17.7 µM
T-47D breast
  GI50: 0.369 µM
  TGI: 42.4 µM
UACC-62 melanoma
  GI50: 0.169 µM
  TGI: 17.1 µM
NCI-H226 lung
  GI50: 1.04 µM
  TGI: 16.5 µM
SNB-75 CNS
  GI50: 0.153 µM
  TGI: 0.667 µM
NCI-H522 lung
  GI50: 0.251 µM
  TGI: 4.34 µM
SK-MEL-5 melanoma
  GI50: 0.517 µM
  TGI: 6.88 µM
MOLT-4 leukemia
  GI50: 0.405 µM
  TGI: > 44.2 µM
NCI/ADR-RES ovarian
  GI50: 0.178 µM
  TGI: 13 µM
HCT-116 colon
  GI50: 0.3 µM
  TGI: 11.9 µM
K-562 leukemia
  GI50: 0.0723 µM
  TGI: > 100 µM
NCI-H460 lung
  GI50: 0.37 µM
  TGI: 12.4 µM
PC-3 prostate
  GI50: 0.254 µM
  TGI: 13.8 µM
786-0 renal
  GI50: 0.561 µM
  TGI: 17.5 µM
KM12 colon
  GI50: 0.211 µM
  TGI: 15.3 µM
SW-620 colon
  GI50: 0.198 µM
  TGI: 16.1 µM
SK-MEL-28 melanoma
  GI50: 4.9 µM
  TGI: 22.8 µM
SN12C renal
  GI50: 0.578 µM
  TGI: 16.5 µM
SK-MEL-2 melanoma
  GI50: 0.677 µM
  TGI: 22 µM
UO-31 renal
  GI50: 0.619 µM
  TGI: 16.9 µM
OVCAR-3 ovarian
  GI50: 0.186 µM
  TGI: 5.41 µM
UACC-257 melanoma
  GI50: 3.85 µM
  TGI: 25.8 µM
SNB-19 CNS
  GI50: 0.395 µM
  TGI: 18.7 µM
NCI-H23 lung
  GI50: 0.556 µM
  TGI: 17.5 µM
SF-295 CNS
  GI50: 0.0799 µM
  TGI: 2.02 µM
OVCAR-8 ovarian
  GI50: 0.427 µM
  TGI: 15.2 µM
HCT-15 colon
  GI50: 0.0908 µM
  TGI: 12.2 µM
HS 578T breast
  GI50: 0.275 µM
  TGI: 22.2 µM
A498 renal
  GI50: 0.0915 µM
  TGI: 0.841 µM
SF-539 CNS
  GI50: 0.215 µM
  TGI: 2.51 µM
MDA-MB-435
  GI50: 0.0838 µM
  TGI: 15.5 µM
SK-OV-3 ovarian
  GI50: 4.32 µM
  TGI: 26.2 µM
ACHN renal
  GI50: 0.649 µM
  TGI: 20.5 µM
HOP-92 NSCLC
  GI50: 1.05 µM
  TGI: 13 µM
OVCAR-4 ovarian
  GI50: 2.98 µM
  TGI: 20.6 µM
CCRF-CEM leukemia
  GI50: 0.239 µM
  TGI: 38.3 µM
MCF7 breast
  GI50: 0.0619 µM
  TGI: 14.7 µM
MALME-3M melanoma
  GI50: 0.567 µM
  TGI: 26.7 µM
SR leukemia
  GI50: 0.0967 µM
  TGI: 28.4 µM
HOP-62 NSCLC
  GI50: 0.556 µM
  TGI: 21.5 µM
SF-268 CNS
  GI50: 2.98 µM
  TGI: 23 µM
LOX IMVI melanoma
  GI50: 0.622 µM
  TGI: 14.2 µM
HCC-2998 colon
  GI50: 0.463 µM
  TGI: 12 µM
M14 melanoma
  GI50: 0.254 µM
  TGI: 15.3 µM
A549 NSCLC
  GI50: 0.372 µM
  TGI: 17 µM
HT29 colon
  GI50: 0.267 µM
  TGI: 11.8 µM
BT-549 breast
  GI50: 1.32 µM
  TGI: 15.5 µM
DU-145 prostate
  GI50: 0.395 µM
  TGI: 17.9 µM
HL-60(TB) leukemia
  GI50: 0.202 µM
  TGI: 2.89 µM
OVCAR-5 ovarian
  GI50: 0.572 µM
  TGI: 17.2 µM

## Cc1cc(C(O)CN(C)C)cc2c1ccc1cc(C(C)C)ccc12 (stereo unspecified)
RPMI-8226 leukemia
  GI50: 2.36 µM
  TGI: 5.12 µM
IGROV1 ovarian
  GI50: 1.85 µM
  TGI: 3.8 µM
TK-10 renal
  GI50: 1.77 µM
  TGI: 3.36 µM
CAKI-1 renal
  GI50: 1.42 µM
  TGI: 3.11 µM
MDA-MB-231 breast
  GI50: 1.64 µM
  TGI: 3.55 µM
U251 CNS
  GI50: 1.92 µM
  TGI: 3.53 µM
COLO 205 colon
  GI50: 1.73 µM
  TGI: 3.32 µM
EKVX NSCLC
  GI50: 3.39 µM
  TGI: 17.9 µM
RXF 393 renal
  GI50: 1.78 µM
  TGI: 3.36 µM
T-47D breast
  GI50: 2.04 µM
  TGI: 4.48 µM
NCI-H226 lung
  GI50: 2.66 µM
  TGI: 8.84 µM
SNB-75 CNS
  GI50: 1.72 µM
  TGI: 3.67 µM
NCI-H522 lung
  GI50: 1.84 µM
  TGI: 3.72 µM
SK-MEL-5 melanoma
  GI50: 1.76 µM
  TGI: 3.16 µM
MOLT-4 leukemia
  GI50: 2.16 µM
  TGI: 5.22 µM
NCI/ADR-RES ovarian
  GI50: 2.07 µM
  TGI: 5.47 µM
HCT-116 colon
  GI50: 1.8 µM
  TGI: 3.29 µM
K-562 leukemia
  GI50: 2.15 µM
  TGI: 4.88 µM
NCI-H460 lung
  GI50: 1.74 µM
  TGI: 3.43 µM
PC-3 prostate
  GI50: 2.24 µM
  TGI: 5.77 µM
786-0 renal
  GI50: 1.84 µM
  TGI: 3.4 µM
KM12 colon
  GI50: 1.82 µM
  TGI: 3.32 µM
SW-620 colon
  GI50: 1.79 µM
  TGI: 3.5 µM
SK-MEL-28 melanoma
  GI50: 1.88 µM
  TGI: 3.36 µM
SN12C renal
  GI50: 3.19 µM
  TGI: 20.6 µM
SK-MEL-2 melanoma
  GI50: 2 µM
  TGI: 3.92 µM
UO-31 renal
  GI50: 1.58 µM
  TGI: 3.72 µM
OVCAR-3 ovarian
  GI50: 1.92 µM
  TGI: 3.6 µM
UACC-257 melanoma
  GI50: 2.11 µM
  TGI: 3.79 µM
SNB-19 CNS
  GI50: 2.07 µM
  TGI: 4.75 µM
NCI-H23 lung
  GI50: 2.85 µM
  TGI: 10.6 µM
SF-295 CNS
  GI50: 1.85 µM
  TGI: 3.54 µM
HCT-15 colon
  GI50: 1.81 µM
  TGI: 3.61 µM
HS 578T breast
  GI50: 2.58 µM
  TGI: 8.92 µM
A498 renal
  GI50: 2.36 µM
  TGI: 11.7 µM
SF-539 CNS
  GI50: 1.98 µM
  TGI: 3.59 µM
MDA-MB-435
  GI50: 1.79 µM
  TGI: 3.64 µM
SK-OV-3 ovarian
  GI50: 4.58 µM
  TGI: 20 µM
ACHN renal
  GI50: 1.87 µM
  TGI: 3.65 µM
HOP-92 NSCLC
  GI50: 1.83 µM
  TGI: 6.45 µM
OVCAR-4 ovarian
  GI50: 2.33 µM
  TGI: 4.84 µM
CCRF-CEM leukemia
  GI50: 2.48 µM
  TGI: 5.65 µM
MCF7 breast
  GI50: 1.71 µM
  TGI: 3.19 µM
MALME-3M melanoma
  GI50: 1.92 µM
  TGI: 3.83 µM
SR leukemia
  GI50: 1.96 µM
  TGI: 5.21 µM
HOP-62 NSCLC
  GI50: 1.59 µM
  TGI: 3.08 µM
SF-268 CNS
  GI50: 2.8 µM
  TGI: 7.73 µM
HCC-2998 colon
  GI50: 1.57 µM
  TGI: 3.16 µM
M14 melanoma
  GI50: 2.02 µM
  TGI: 4.03 µM
A549 NSCLC
  GI50: 1.93 µM
  TGI: 3.54 µM
HT29 colon
  GI50: 1.56 µM
  TGI: 3.62 µM
BT-549 breast
  GI50: 5.67 µM
  TGI: 19.5 µM
DU-145 prostate
  GI50: 2.19 µM
  TGI: 4.08 µM
HL-60(TB) leukemia
  GI50: 1.89 µM
  TGI: 4.08 µM
OVCAR-5 ovarian
  GI50: 2.02 µM
  TGI: 4.36 µM
